Literature values in patent publication US20050182028A1, “Pharmaceutical formulation for oral delivery of bisphosphates” (priority 2004, published 2005).

Conditions: background statement

## O=P(O)(O)C(O)(Cc1cccnc1)P(=O)(O)O [risedronate, Risedronate]
  oral bioavailability: 0.63%
